Laboratory results: patent publication US12018016B2, “Aryl sulfonyl (hydroxy) piperidines as CCR6 inhibitors” (CHEMOCENTRYX, INC., priority 2021, dated 2024)

target: T1, human CCR6 (Homo sapiens, UniProt P51684); assay: Migration assay (chemotaxis, ChemoTX); format: cell-based; settings: hCCR6-transfected Ba/F3 cells in human serum, migration to recombinant human CCL20 10 nM, 37° C. 45 minutes; read-out: Potency (IC50 value in the migration assay)
T1 construct: expressed in transfected cells; host or cells: Ba/F3 cells (mouse pro-B line)
T1 sequence (P51684 1-374): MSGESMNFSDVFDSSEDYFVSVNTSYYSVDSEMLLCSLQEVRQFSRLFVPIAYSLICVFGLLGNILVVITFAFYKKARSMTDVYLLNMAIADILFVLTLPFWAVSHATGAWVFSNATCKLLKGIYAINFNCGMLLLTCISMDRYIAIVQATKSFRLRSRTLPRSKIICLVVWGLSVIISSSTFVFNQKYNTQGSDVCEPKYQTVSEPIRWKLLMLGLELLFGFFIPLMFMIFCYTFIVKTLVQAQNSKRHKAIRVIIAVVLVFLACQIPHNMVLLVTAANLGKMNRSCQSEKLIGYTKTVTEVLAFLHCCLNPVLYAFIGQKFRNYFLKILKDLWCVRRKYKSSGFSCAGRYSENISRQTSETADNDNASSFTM
Excerpt: A chemotaxis assay can be used to determine the efficacy of potential receptor antagonists at blocking the migration mediated through chemokine receptors, such as CCR6. This assay is routinely performed using the ChemoTX® microchamber system with a 5-μm pore-sized polycarbonate membrane. Chemokine receptor-expressing cells are required for such an assay. In this case, Ba/F3 cells (Palacios et al., Nature, 309:126, 1984) transfected with the gene for human CCR6 under control of the CMV promotor were used. To begin such an assay, hCCR6-transfected Ba/F3 cells are first grown for 24 hr in medium supplemented with sodium butyrate, which increases CCR6 transcription via the CMV promotor. The prepared Ba/F3 cells, are collected by centrifugation at 400×g at room temperature, then suspended at 4 million/ml in human serum. The compound being tested is serially diluted from a maximum final concentration of 1 μM (or an equivalent volume of its solvent (DMSO)) and is then added to the cell/serum mixture. Separately, recombinant human CCL20 (MIP-3α/LARC) at its EC50 concentration (10 nM) is placed in the lower wells of the ChemoTX® plate. The 5-μm (pore size) polycarbonate membrane is placed onto the plate, and 20 μL of the cell/compound mixture is transferred onto each well of the membrane. The plates are incubated at 37° C. for 45 minutes, after which the polycarbonate membranes are removed and 5 μl of the DNA-intercalating dye CyQUANT (Invitrogen, Carlsbad, CA) is added to the lower wells. The amount of fluorescence, corresponding to the number of migrated cells, is measured using a Spectrafluor Plus plate reader (TECAN, San Jose, CA).

IC50 | Compound
1 to 10 nM | N#Cc1c[nH]c2ncc(-c3ccc(S(=O)(=O)N4CC[C@H](Nc5ccc(C(F)(F)F)cn5)[C@H](O)C4)cc3)cc12 [Example 32, 5-(4-(((3R,4S)-3-hydroxy-4-((5-(trifluoromethyl)pyridin-2-yl)amino)piperidin-1-yl)sulfonyl)phenyl)-1H-pyrrolo[2,3-b]pyridine-3-carbonitrile]
< 1 nM | Cc1c(-c2ccc(S(=O)(=O)N3CC[C@@H](Nc4ccc(C#N)cn4)[C@@H](O)C3)cc2)cnc2[nH]ccc12 [Example 33, 6-[[(3S,4R)-3-hydroxy-1-[4-(4-methyl-1H-pyrrolo[2,3-b]pyridin-5-yl)phenyl]sulfonyl-4-piperidyl]amino]pyridine-3-carbonitrile]
< 1 nM | Cc1nc2[nH]cc(C#N)c2cc1-c1ccc(S(=O)(=O)N2CC[C@@H](Nc3ccc(C(F)(F)F)cn3)[C@@H](O)C2)cc1 [Example 46, 5-(4-(((3S,4R)-3-hydroxy-4-((5-(trifluoromethyl)pyridin-2-yl)amino)piperidin-1-yl)sulfonyl)phenyl)-6-methyl-1H-pyrrolo[2,3-b]pyridine-3-carbonitrile]
< 1 nM | N#Cc1c[nH]c2ncc(-c3ccc(S(=O)(=O)N4CC[C@@H](Nc5ccc(C(F)(F)F)cn5)[C@@H](O)C4)cc3)cc12 [Example 61, 5-(4-(((3S,4R)-3-hydroxy-4-((5-(trifluoromethyl)pyridin-2-yl)amino)piperidin-1-yl)sulfonyl)phenyl)-1H-pyrrolo[2,3-b]pyridine-3-carbonitrile]
< 1 nM | Cc1nnc(-c2cc(-c3ccc(S(=O)(=O)N4CC[C@@H](Nc5ccc(C(F)(F)F)cn5)[C@@H](O)C4)cc3)ccn2)o1 [Example 11, (3S,4R)-1-((4-(2-(5-methyl-1,3,4-oxadiazol-2-yl)pyridin-4-yl)phenyl)sulfonyl)-4-((5-(trifluoromethyl)pyridin-2-yl)amino)piperidin-3-ol]
1 to 10 nM | NC(=O)c1ncc(-c2ccc(S(=O)(=O)N3CC[C@@H](Nc4ccc(C(F)(F)F)cn4)[C@@H](O)C3)cc2)cc1N [Example 19, 3-Amino-5-(4-(((3S,4R)-3-hydroxy-4-((5-(trifluoromethyl)pyridin-2-yl)amino)piperidin-1-yl)sulfonyl)phenyl)picolinamide]
< 1 nM | O=C1NCc2cc(-c3ccc(S(=O)(=O)N4CC[C@@H](Nc5ccc(C(F)(F)F)cn5)[C@@H](O)C4)cc3)ccc21 [Example 12, 5-(4-(((3S,4R)-3-hydroxy-4-((5-(trifluoromethyl)pyridin-2-yl)amino)piperidin-1-yl)sulfonyl)phenyl)isoindolin-1-one]
< 1 nM | COC(=O)c1cc(-c2ccc(S(=O)(=O)N3CC[C@@H](Nc4ccc(C(F)(F)F)cn4)[C@@H](O)C3)cc2)ccn1 [Example 39, Methyl 4-(4-(((3S,4R)-3-hydroxy-4-((5-(trifluoromethyl)pyridin-2-yl)amino)piperidin-1-yl)sulfonyl)phenyl)picolinate]
< 1 nM | COc1c(-c2ccc(S(=O)(=O)N3CC[C@@H](Nc4ccc(C(F)(F)F)cn4)[C@@H](O)C3)cc2)cnc2[nH]ccc12 [Example 58, (3S,4R)-1-((4-(4-methoxy-1H-pyrrolo[2,3-b]pyridin-5-yl)phenyl)sulfonyl)-4-((5-(trifluoromethyl)pyridin-2-yl)amino)piperidin-3-ol]

Further lines, the compound ahead of its results:

Compound | IC50
Cn1ccnc1-c1cc(-c2ccc(S(=O)(=O)N3CC[C@@H](Nc4ccc(C(F)(F)F)cn4)[C@@H](O)C3)cc2)ccn1 [Compound 65, (3S,4R)-1-((4-(2-(1-methyl-1H-imidazol-2-yl)pyridin-4-yl)phenyl)sulfonyl)-4-((5-(trifluoromethyl)pyridin-2-yl)amino)piperidin-3-ol] | 10 to 1000 nM
O=S(=O)(c1ccc(-c2ccnc(N3CC4(COC4)C3)c2)cc1)N1CC[C@@H](Nc2ccc(C(F)(F)F)cn2)[C@@H](O)C1 [Compound 135] | < 1 nM
CNc1cc(-c2ccc(S(=O)(=O)N3CC[C@@H](Nc4ccc(C(F)(F)F)cn4)[C@@H](O)C3)cc2)ccn1 [Compound 125] | 1 to 10 nM
Cc1nnc(-c2cc(-c3ccc(S(=O)(=O)N4CC[C@@H](Nc5ncc(C(F)(F)F)cc5C)[C@@H](O)C4)cc3)ccn2)o1 [Compound 84, (3S,4R)-1-[4-[2-(5-methyl-1,3,4-oxadiazol-2-yl)-4-pyridyl]phenyl]sulfonyl-4-[[3-methyl-5-(trifluoromethyl)-2-pyridyl]amino]piperidin-3-ol] | < 1 nM
CN1CC2(C1)CN(c1cc(-c3ccc(S(=O)(=O)N4CC[C@@H](Nc5ccc(C(F)(F)F)cn5)[C@@H](O)C4)cc3)ccn1)C2 [Compound 142] | 1 to 10 nM
Cc1nnc(-c2cc(-c3ccc(S(=O)(=O)N4CC[C@@H](Nc5ccc(C(F)(F)F)cn5)[C@@H](O)C4)cc3)ccn2)[nH]1 [Compound 64, (3S,4R)-1-((4-(2-(5-methyl-4H-1,2,4-triazol-3-yl)pyridin-4-yl)phenyl)sulfonyl)-4-((5-(trifluoromethyl)pyridin-2-yl)amino)piperidin-3-ol] | 1 to 10 nM
O=C1C[C@@H](Nc2ccc(-c3ccc(S(=O)(=O)N4CC[C@@H](Nc5ccc(C(F)(F)F)cn5)[C@@H](O)C4)cc3)cn2)CN1 [Compound 168] | < 1 nM
Cc1cc(C(F)(F)F)cnc1N[C@@H]1CCN(S(=O)(=O)c2ccc(-c3cnc4[nH]cc(C#N)c4c3)cc2)C[C@@H]1O [Compound 192] | < 1 nM
4-(4-(((3S,4R)-3-hydroxy-4-((4-(trifluoromethyl)phenyl)amino)piperidin-1-yl)sulfonyl)phenyl)picolinamide [Compound 81] | < 1 nM
O=C1CNCCN1c1cc(-c2ccc(S(=O)(=O)N3CC[C@@H](Nc4ccc(C(F)(F)F)cn4)[C@@H](O)C3)cc2)ccn1 [Compound 88, 1-(4-(4-(((3S,4R)-3-hydroxy-4-((5-(trifluoromethyl)pyridin-2-yl)amino)piperidin-1-yl)sulfonyl)phenyl)pyridin-2-yl)piperazin-2-one] | 1 to 10 nM
O=c1[nH]ncc2ccc(-c3ccc(S(=O)(=O)N4CC[C@@H](Nc5ccc(C(F)(F)F)cn5)[C@@H](O)C4)cc3)cc12 [Compound 180] | < 1 nM
Cc1cnc(C#N)c(C)c1-c1ccc(S(=O)(=O)N2CC[C@@H](Nc3ccc(C(F)(F)F)cn3)[C@@H](O)C2)cc1 [Compound 75, 4-(4-(((3S,4R)-3-hydroxy-4-((5-(trifluoromethyl)pyridin-2-yl)amino)piperidin-1-yl)sulfonyl)phenyl)-3,5-dimethylpicolinonitrile] | < 1 nM
Cc1cc(-c2ccc(S(=O)(=O)N3CC[C@@H](Nc4ccc(C(F)(F)F)cn4)[C@@H](O)C3)cc2)ccn1 [Compound 163] | < 1 nM
N#Cc1cc(C(F)(F)F)cnc1N[C@@H]1CCN(S(=O)(=O)c2ccc(-c3ccnc(C(N)=O)c3)cc2)C[C@@H]1O [Compound 85, 4-(4-(((3S,4R)-4-((3-cyano-5-(trifluoromethyl)pyridin-2-yl)amino)-3-hydroxypiperidin-1-yl)sulfonyl)phenyl)picolinamide] | 10 to 1000 nM
NC(=O)Cc1cc(-c2ccc(S(=O)(=O)N3CC[C@@H](Nc4ccc(C(F)(F)F)cn4)[C@@H](O)C3)cc2)ccn1 [Compound 207] | 1 to 10 nM
O=C1CN(c2cc(-c3ccc(S(=O)(=O)N4CC[C@@H](Nc5ccc(C(F)(F)F)cn5)[C@@H](O)C4)cc3)ccn2)CCN1 [Compound 173] | < 1 nM
CN(C)c1ccc(-c2ccc(S(=O)(=O)N3CC[C@@H](Nc4ccc(C(F)(F)F)cn4)[C@@H](O)C3)cc2)cn1 [Compound 112] | < 1 nM
